# Test results: PMC5052559, “A fragment-based approach applied to a highly flexible target: Insights and challenges towards the inhibition of HSP70 isoforms” (Scientific Reports, 2016)
# How the values were obtained:
# S275W HSC70-NBD = target: T1, S275W HSC70-NBD (Homo sapiens, UniProt P11142, S275W); experiment: SPR binding to S275W HSC70-NBD mutant
# T1 construct: WT HSPA8 (HSC70) residues 1 to 381; GST (N, cleaved yes); made in house; host or cells: E. coli BL21-AI (expressed as described for FL-HSP72)
# Description: (§1) SPR experiments were carried out using a Biacore T200 (GE Healthcare) at 25 °C. Amine coupling chemistry was used to immobilise the HSC70 NBD domain and S275W, S275F and S275A HSC70-NBD mutant proteins on a carboxymethyl-5′-dextran (CM5) sensor chip. The chip’s surface was activated with a 10 min injection of a 1:1 mixture of 100 mM N-hydroxysuccinimide and 400 mM 1-ethyl-3-(3-dimethylaminopropyl)-carbodiimide. […] The remaining activated groups on the surface were blocked with a 7 min injection of 1 M ethanolamine at pH 8.5. […] Flow cell one was left unmodified as the reference surface.
# (§2) In addition, a DMSO correction curve, prepared as described in the GE manual, was used to correct the effects of the solvent on signal intensity. Raw SPR data from the single point screen was processed and analysed using Pipeline Pilot version 8.0.1.500[37]. Firstly, the reported binding level for each fragment was corrected by subtraction of the buffer blank.
# (§3) The initial fragment hits were further investigated in a three-point concentration-response experiment against freshly immobilised WT HSC70-NBD and the S275W HSC70-NBD mutants using the same experimental protocol as for the primary screen. Compound dilutions of 50, 100 and 200 μM were generated using the ECHO 550.
# WT HSC70-NBD = target: T2, WT HSC70-NBD (Homo sapiens, UniProt P11142); experiment: SPR binding to wild-type HSC70-NBD; conditions: for Kd / Kd WT HSC70-NBD: 25 °C; for LE (ligand efficiency): calculated using the SPR Kd on WT HSC70-NBD; for increase in affinity compared to parent fragment: SPR Kd, 23 vs 10, 24 vs 19
# T2 construct: WT HSPA8 (HSC70) residues 1 to 381; GST (N, cleaved yes); made in house; host or cells: E. coli BL21-AI (expressed as described for FL-HSP72)
# Description: as §1, §2, §3
# HSC70-NBD S275A mutant = target: T3, HSC70-NBD S275A mutant (Homo sapiens, UniProt P11142, S275A); experiment: SPR binding to S275A HSC70-NBD mutant; conditions: n = 3
# T3 construct: WT HSPA8 (HSC70) residues 1 to 381; GST (N, cleaved yes); made in house; host or cells: E. coli BL21-AI (expressed as described for FL-HSP72)
# Description: SPR experiments were carried out using a Biacore T200 (GE Healthcare) at 25 °C. Amine coupling chemistry was used to immobilise the HSC70 NBD domain and […], […] and […] HSC70-NBD mutant proteins on a carboxymethyl-5'-dextran (CM5) sensor chip. […] The remaining activated groups on the surface were blocked with a 7 min injection of 1 M ethanolamine at pH 8.5. For all the above procedures the flow rate was maintained at 10 μL/min and a 1x phosphate buffered saline running buffer (PBS running buffer: 10 mM NaHPO4/NaH2PO4 pH 7.4, 2.7 mM KCl, 137 mM NaCl) was used during immobilisation. Approximately ~13,000 response units (RU) of protein could be routinely captured on the CM5 chip on flow cells two to four. Flow cell one was left unmodified as the reference surface. Our in-house fragment library of 1962 fragments at a stock concentration of 100 mM in 100% (v/v) was screened. SPR screening plates were prepared by dispensing of 0.1 μL of each fragment in 384-well polypropylene V-bottomed plates (Greiner) using an ECHO 550 acoustic liquid dispenser (Labcyte) followed by addition of fresh DMSO and running buffer to give a final fragment concentration of 125 μM in 5% (v/v) DMSO in an assay volume of 80 μL. The initial fragment hits were further investigated in a three-point concentration-response experiment against freshly immobilised WT HSC70-NBD and the […] HSC70-NBD mutants using the same experimental protocol as for the primary screen. Compound dilutions of 50, 100 and 200 μM were generated using the ECHO 550. A confirmed hit was defined as a fragment giving greater than 10% response compared to adenosine and these were prioritised on the basis of their concentration response, ratio of experimental and theoretical Rmax, and shape of the sensorgrams, and expected fast on/fast off binding kinetics. […] HSC70-NBD mutant. […] Nucleotides were dissolved in double distilled water to give 10 mM stock solutions, then diluted 40X with DMSO and tested using a concentration range between 0.0625 μM and 2.5 μM.
# S275F HSC70-NBD = target: T4, S275F HSC70-NBD (Homo sapiens, UniProt P11142, S275F); experiment: SPR binding to S275F HSC70-NBD mutant
# T4 construct: WT HSPA8 (HSC70) residues 1 to 381; GST (N, cleaved yes); made in house; host or cells: E. coli BL21-AI (expressed as described for FL-HSP72)
# Description: SPR experiments were carried out using a Biacore T200 (GE Healthcare) at 25 °C. Amine coupling chemistry was used to immobilise the HSC70 NBD domain and S275W, S275F and S275A HSC70-NBD mutant proteins on a carboxymethyl-5′-dextran (CM5) sensor chip. The chip’s surface was activated with a 10 min injection of a 1:1 mixture of 100 mM N-hydroxysuccinimide and 400 mM 1-ethyl-3-(3-dimethylaminopropyl)-carbodiimide. The HSC70 proteins (70 μg/mL in 10 mM sodium acetate, 750 μM ADP, pH 5.0) were immobilised on the surface over a 10 min injection period. The remaining activated groups on the surface were blocked with a 7 min injection of 1 M ethanolamine at pH 8.5. For all the above procedures the flow rate was maintained at 10 μL/min and a 1x phosphate buffered saline running buffer (PBS running buffer: 10 mM NaHPO4/NaH2PO4 pH 7.4, 2.7 mM KCl, 137 mM NaCl) was used during immobilisation. Approximately ~13,000 response units (RU) of protein could be routinely captured on the CM5 chip on flow cells two to four. Flow cell one was left unmodified as the reference surface. Our in-house fragment library of 1962 fragments at a stock concentration of 100 mM in 100% (v/v) was screened. SPR screening plates were prepared by dispensing of 0.1 μL of each fragment in 384-well polypropylene V-bottomed plates (Greiner) using an ECHO 550 acoustic liquid dispenser (Labcyte) followed by addition of fresh DMSO and running buffer to give a final fragment concentration of 125 μM in 5% (v/v) DMSO in an assay volume of 80 μL.
# The full fragment screen was carried out against freshly immobilised WT-HSC70 NBD and the S275W and S275F HSC70-NBD mutants, using the same experimental setting as for the clean screen and a final fragment concentration of 125 μM. Injections of running buffer and of 125 μM adenosine, which was used as a positive control to monitor the health of the protein, were carried out at intervals of 35 cycles throughout the screen. In addition, a DMSO correction curve, prepared as described in the GE manual, was used to correct the effects of the solvent on signal intensity. Raw SPR data from the single point screen was processed and analysed using Pipeline Pilot version 8.0.1.500[37]. Firstly, the reported binding level for each fragment was corrected by subtraction of the buffer blank. Secondly, the values were corrected for the molecular weight of each fragment and the binding was normalised to the binding level observed for the closest adenosine control. […] However, fragments with a binding level exceeding two times the theoretical Rmax were excluded, as we considered this an indication of superstoichiometric binding. Finally, fragments showing preferred binding to wild-type HSC70-NBD versus the HSC70-NBD mutants with a blocked adenine sub pocket were identified by plotting the binding levels of the fragments to wild-type HSC70-NBD against the binding levels of the respective mutant HSC70-NBD variants and added to the primary hit list. In total this procedure yielded 54 initial fragment hits.
# [1] = SPR, mean ± SD, No binding = binding level ≤10RU at 1mM
# [2] = SPR, mean ± standard deviation or standard error, triplicate unless marked duplicate/single
# T2 sequence (P11142 1-381): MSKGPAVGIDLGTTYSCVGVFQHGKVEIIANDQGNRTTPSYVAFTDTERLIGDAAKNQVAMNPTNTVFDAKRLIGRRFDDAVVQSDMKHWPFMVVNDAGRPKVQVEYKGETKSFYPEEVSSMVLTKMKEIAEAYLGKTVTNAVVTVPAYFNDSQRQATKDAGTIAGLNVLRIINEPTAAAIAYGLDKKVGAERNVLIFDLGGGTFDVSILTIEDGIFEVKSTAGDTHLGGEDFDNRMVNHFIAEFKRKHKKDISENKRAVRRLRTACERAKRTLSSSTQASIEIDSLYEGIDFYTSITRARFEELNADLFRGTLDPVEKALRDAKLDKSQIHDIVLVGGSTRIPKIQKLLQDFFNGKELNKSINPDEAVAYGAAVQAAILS
# T3 sequence (P11142 1-381 S275A): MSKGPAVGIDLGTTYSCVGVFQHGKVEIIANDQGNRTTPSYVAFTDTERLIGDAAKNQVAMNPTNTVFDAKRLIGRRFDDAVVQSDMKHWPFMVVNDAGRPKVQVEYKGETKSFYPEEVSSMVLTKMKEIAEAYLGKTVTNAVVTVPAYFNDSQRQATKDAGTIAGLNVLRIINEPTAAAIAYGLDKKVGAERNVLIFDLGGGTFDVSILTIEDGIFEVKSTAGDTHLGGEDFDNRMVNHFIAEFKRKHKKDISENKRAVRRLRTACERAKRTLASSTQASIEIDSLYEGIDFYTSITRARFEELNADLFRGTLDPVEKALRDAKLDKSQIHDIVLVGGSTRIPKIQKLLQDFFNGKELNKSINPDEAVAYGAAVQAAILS
# T4 sequence (P11142 1-381 S275F): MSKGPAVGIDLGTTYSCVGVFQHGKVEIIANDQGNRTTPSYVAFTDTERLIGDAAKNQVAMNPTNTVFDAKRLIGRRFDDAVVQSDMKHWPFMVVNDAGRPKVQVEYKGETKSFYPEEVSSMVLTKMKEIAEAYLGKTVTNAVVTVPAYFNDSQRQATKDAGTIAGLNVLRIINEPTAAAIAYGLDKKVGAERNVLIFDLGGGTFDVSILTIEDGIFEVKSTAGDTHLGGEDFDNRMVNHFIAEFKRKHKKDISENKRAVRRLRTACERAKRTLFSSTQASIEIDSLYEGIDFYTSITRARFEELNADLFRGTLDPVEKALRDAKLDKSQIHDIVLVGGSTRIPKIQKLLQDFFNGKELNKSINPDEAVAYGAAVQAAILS
# T1 sequence (P11142 1-381 S275W): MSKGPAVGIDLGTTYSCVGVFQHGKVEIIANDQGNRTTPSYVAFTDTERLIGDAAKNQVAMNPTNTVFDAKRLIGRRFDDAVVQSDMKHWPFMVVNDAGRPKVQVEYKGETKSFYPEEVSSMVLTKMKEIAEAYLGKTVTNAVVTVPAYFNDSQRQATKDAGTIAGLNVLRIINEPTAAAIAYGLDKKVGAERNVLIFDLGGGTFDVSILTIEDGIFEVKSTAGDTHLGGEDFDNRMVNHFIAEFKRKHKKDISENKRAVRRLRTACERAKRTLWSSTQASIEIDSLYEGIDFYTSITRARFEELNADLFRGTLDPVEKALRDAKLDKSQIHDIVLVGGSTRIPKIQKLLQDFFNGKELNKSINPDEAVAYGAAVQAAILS
LE (ligand efficiency) (WT HSC70-NBD),Kd (WT HSC70-NBD; [2]) [µM],SMILES,further results
0.31,,"Nc1ncnc2c1ncn2[C@@H]1O[C@H](COP(=O)(O)OP(=O)(O)O)[C@@H](O)[C@H]1O [ADP, reference compound]",binding to S275W HSC70-NBD mutant (in words) (S275W HSC70-NBD): abolished binding; Kd (WT HSC70-NBD; [1]): 0.71 ± 0.32 µM; Kd (HSC70-NBD S275A mutant): 5.6 ± 2.4 µM; binding to S275F HSC70-NBD mutant (in words) (S275F HSC70-NBD): abolished binding
0.28,,"Nc1ncnc2c1ncn2[C@@H]1O[C@H](CO)[C@@H](O)[C@H]1O [Adenosine, adenosine, reference compound]",binding to S275W HSC70-NBD mutant (in words) (S275W HSC70-NBD): abolished binding; Kd (WT HSC70-NBD; [1]): 165 µM; Kd (HSC70-NBD S275A mutant): 1800 ± 520 µM; binding to S275F HSC70-NBD mutant (in words) (S275F HSC70-NBD): abolished binding
,,"Nc1ccn([C@@H]2O[C@H](COP(=O)(O)OP(=O)(O)O)[C@@H](O)[C@H]2O)c(=O)n1 [CDP, reference compound]",Kd WT HSC70-NBD (WT HSC70-NBD; [1]): No binding
,3500 ± 600,CN1N=C(N)c2c[nH]c3ncnc1c23 [Compound 3],
,,"Nc1ncnc2[nH]cnc12 [Compound 5, adenine, reference compound]",Kd WT HSC70-NBD (WT HSC70-NBD; [1]): No binding
0.34,,"Nc1nc2ncnc(N)c2[nH]1 [Compound 6, 8-aminoadenine, reference compound]",Kd (WT HSC70-NBD; [1]): 2100 µM
0.27,1700 ± 600,O=c1[nH]cnc2c1oc1ccccc12 [Compound 7],binding to S275W HSC70-NBD mutant (in words) (S275W HSC70-NBD): reduced binding and a low degree of saturation; binding to S275F HSC70-NBD mutant (in words) (S275F HSC70-NBD): reduced binding and a low degree of saturation
0.33,1400 ± 100,Cc1ccc2ncnc(N)c2c1 [Compound 8],binding to S275W HSC70-NBD mutant (in words) (S275W HSC70-NBD): reduced binding and a low degree of saturation; binding to S275F HSC70-NBD mutant (in words) (S275F HSC70-NBD): reduced binding and a low degree of saturation
,2100,Nc1ncnc2ccccc12 [Compound 10],
,,Cc1nc(N)c2ccccc2n1 [Compound 11],binding to WT HSC70-NBD (in words) (WT HSC70-NBD; SPR): no detectable affinity
,12000,Cc1cccc2ncnc(N)c12 [Compound 12],
,800,"Cc1ccc2c(N)ncnc2c1 [Compound 13, 7-methyl 4-aminoquinazoline]",
,2900,Cc1cccc2c(N)ncnc12 [Compound 14],
,830,COc1cccc2ncnc(N)c12 [Compound 15],
,1000,"COc1ccc2ncnc(N)c2c1 [Compound 16, 6-methoxy 4-aminoquinazoline]",
,850,COc1ccc2c(N)ncnc2c1 [Compound 17],
,2000,COc1cccc2c(N)ncnc12 [Compound 18],
,830,COc1cc2ncnc(N)c2cc1OC [Compound 19],
,4800 ± 1100,CNc1ncnc2ccccc12 [Compound 20],
,,OC[C@H]1C[C@@H](Nc2ncnc3ccccc23)[C@H](O)[C@@H]1O [Compound 23],increase in affinity compared to parent fragment (WT HSC70-NBD): 7 fold; Kd (WT HSC70-NBD; [1]): 310 ± 100 µM
,250,COc1cc2ncnc(N[C@@H]3C[C@H](CO)[C@@H](O)[C@H]3O)c2cc1OC [Compound 24],increase in affinity compared to parent fragment (WT HSC70-NBD): three-fold
,1040,COc1cccc2ncnc(N[C@@H]3C[C@H](CO)[C@@H](O)[C@H]3O)c12 [Compound 26],
0.14,850,OC[C@H]1C[C@@H](Nc2ncnc3cccc(OCc4ccc(Cl)c(Cl)c4)c23)[C@H](O)[C@@H]1O [Compound 27],Kd (S275W HSC70-NBD; single measurement): 5000 µM
0.17,370,OC[C@H]1C[C@@H](Nc2ncnc3cccc(OCc4ccccc4)c23)[C@H](O)[C@@H]1O [Compound 28],Kd S275W HSC70-NBD (S275W HSC70-NBD; single measurement): No binding
0.10,2000,N#Cc1ccc(COC[C@H]2C[C@@H](Nc3ncnc4cccc(OCc5ccccc5)c34)[C@H](O)[C@@H]2O)cc1 [Compound 29],Kd (S275W HSC70-NBD; single measurement): 2000 µM
0.18,,"Nc1nc2c(ncn2[C@@H]2O[C@H](COP(=O)(O)OP(=O)(O)O)[C@@H](O)[C@H]2O)c(=O)[nH]1 [GDP, reference compound]",Kd (WT HSC70-NBD; [1]): 223 µM
,,"Cc1cn([C@H]2C[C@H](O)[C@@H](COP(=O)(O)OP(=O)(O)O)O2)c(=O)[nH]c1=O [TDP, reference compound]",Kd WT HSC70-NBD (WT HSC70-NBD; [1]): No binding
,,"O=c1ccn([C@@H]2O[C@H](COP(=O)(O)OP(=O)(O)O)[C@@H](O)[C@H]2O)c(=O)[nH]1 [UDP, reference compound]",Kd WT HSC70-NBD (WT HSC70-NBD; [1]): No binding

SMILES,LE (ligand efficiency) (WT HSC70-NBD),Kd (WT HSC70-NBD; [2]) [µM],further results
"Nc1ncnc2c1ncn2[C@@H]1O[C@H](COP(=O)(O)OP(=O)(O)OP(=O)(O)O)[C@@H](O)[C@H]1O [ATP, reference compound]",0.29,,Kd (WT HSC70-NBD; [1]): 0.33 µM; Kd (HSC70-NBD S275A mutant): 2.1 µM
"Nc1ncnc2c1nc(N)n2[C@@H]1O[C@H](CO)[C@@H](O)[C@H]1O [Compound 4, 8-aminoadenosine, reference compound]",0.35,,Kd (WT HSC70-NBD; [1]): 8 µM
